Experiment [1] relates to PMCA-1 (peritoneal metastases from colorectal cancer). Nature of the experiment: In vivo treatment effect in orthotopic PMCA-1 peritoneal carcinomatosis model. The conditions noted are these: PMCA-1, 15 mg/kg.
Experiment [2] deals with PMCA-3 (pseudomyxoma peritonei). Nature of the experiment: In vivo treatment effect in orthotopic PMCA-3 peritoneal carcinomatosis model. The conditions noted are these: PMCA-3, 15 mg/kg.

These results are taken from patent US12433846B2, “Drug delivery system for treatment of cancer” (SINTEF TTO AS, priority 2019, dated 2025).

Molecules are shown by their SMILES. Where “and” joins values, the source holds several entries; their conditions need not be identical. Equal values may be shown once.

With `CO[C@H]1C(=O)[C@]2(C)[C@@H](OC)C[C@H]3OC[C@@]3(OC(C)=O)[C@H]2[C@H](OC(=O)c2ccccc2)[C@]2(O)C[C@H](OC(=O)[C@H](O)[C@@H](NC(=O)OC(C)(C)C)c3ccccc3)C(C)=C1C2(C)C` [CBZ, cabazitaxel], the “mice still alive at day 90 after the injection” value in experiment [1] (IP (FIG. 4)) is listed as 4 out of 6; in experiment [1] (IV (FIG. 4)), 3 out of 6. Moreover, the “tumor growth (growth index) compared to vehicle treatment” value in experiment [1] (intraperitoneal (FIG. 1)) was “significantly inhibited tumor growth”; in experiment [2] (intraperitoneal (FIG. 2)), “significantly reduced tumor growth”. Further, the “mice cured (sacrificed on day 100 with no detectable tumor)” value in experiment [1] (intraperitoneal, day 100) is 3/6 and 3 out of 6; in experiment [2] (intraperitoneal, day 100) it was “No animals were cured”. Also, the “mice still alive at day 60 after the injection” value in experiment [2] (IP (FIG. 6)) is on record as “none of the mice”. For the same compound, the “mice alive at day 70 after the injection” value in experiment [2] (IV (FIG. 6)) is reported as “none of the mice”.
